Measurements as given in patent US11274083B2, “Substituted thiophenyl uracils, salts thereof and the use thereof as herbicidal agents” (Syngenta Crop Protection AG, priority 2017, dated 2022).

Legend:
Format in all cases: in vivo
Matricaria inodora [1] = assay: Herbicidal action pre-emergence, greenhouse pot test
Text: Seeds of mono- and dicotyledonous weeds and crop plants were laid out in plastic or organic plant pots and covered with soil. The compounds of the invention formulated in the form of wettable powders (WP) or as emulsion concentrates (EC) were then applied to the surface of the covering soil as an aqueous suspension or emulsion with addition of 0.5% additive at a water application rate equivalent to 600 L/ha. After the treatment, the pots were placed in a greenhouse and kept under good growth conditions for the test plants. After about 3 weeks, the efficacy of the preparations was scored visually as a percentage by comparison with untreated controls. For example, 100% efficacy=plants have died. 0% efficacy=like control plants. Tables B1 to B17 below show the efficacies of selected compounds of the general formula (I) […] aforementioned trial method.

Alopecurus myosuroides [2] = assay: Herbicidal action post-emergence, greenhouse pot test; settings: application rate 80 g/ha, scored visually after about 3 weeks vs untreated controls
Outline: (§1)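 Sandy loam pots, greenhouse; one-leaf stage (2–3 wk post-sowing); WP/EC spray as aqueous suspension/emulsion + 0.5% additive, 600 L/ha; rate ≤80 g/ha; visual % efficacy vs untreated at ~3 wk.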

Setaria viridis [3] = assay: as above
Outline: as §1

Amaranthus retroflexus [4] = assay: as above; settings: application rate 80 g/ha
Outline: as §1

Polygonum convolvulus [5] = assay: as above
Outline: as §1

Abutilon theophrasti [6] = assay: as above; settings: application rate 80 g/ha
Outline: as §1

Stellaria media [7] = assay: as above; settings: application rate 80 g/ha
Outline: as §1

Veronica persica [8] = assay: as above; settings: application rate 80 g/ha
Outline: as §1

Matricaria inodora [9] = assay: as above
Outline: as §1

Pharbitis purpurea [10] = assay: as above
Outline: as §1

Echinochloa crus-galli [11] = assay: as above; settings: application rate 80 g/ha
Outline: as §1

Viola tricolor [12] = assay: as above; settings: application rate 20 g/ha
Outline: as §1

Lolium rigidum [13] = assay: as above; settings: application rate 80 g/ha
Outline: as §1

Triticum aestivum = assay: Crop compatibility post-emergence, greenhouse pot test; settings: application rate 20 g/ha
Outline: (§2)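 Crop tolerance is rated as visual percent injury relative to untreated plants, about 3 weeks after a post-emergence foliar spray at the one-leaf stage. Sprays use WP or EC formulations diluted in water with 0.5% additive at 600 L/ha; plants are grown in sandy loam pots under greenhouse conditions.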

Alopecurus myosuroides [14] = assay: Herbicidal action pre-emergence, greenhouse pot test; settings: application rate 320 g/ha
Text: (§3) Seeds of mono- and dicotyledonous weeds and crop plants were laid out in plastic or organic plant pots and covered with soil. The compounds of the invention formulated in the form of wettable powders (WP) or as emulsion concentrates (EC) were then applied to the surface of the covering soil as an aqueous suspension or emulsion with addition of 0.5% additive at a water application rate equivalent to 600 L/ha. After the treatment, the pots were placed in a greenhouse and kept under good growth conditions for the test plants. After about 3 weeks, the efficacy of the preparations was scored visually as a percentage by comparison with untreated controls. For example, 100% efficacy=plants have died. 0% efficacy=like control plants. Tables B1 to B17 below show the efficacies of selected compounds of the general formula (I) according to tables I.1 to I.50 on various harmful plants and an application rate corresponding to 320 g/ha or lower that were obtained by the aforementioned trial method.

Setaria viridis [15] = assay: as above
Text: as §3

Amaranthus retroflexus [16] = assay: as above; settings: application rate 80 g/ha
Text: as §3

Polygonum convolvulus [17] = assay: as above
Text: as §3

Abutilon theophrasti [18] = assay: as above
Text: as §3

Hordeum murinum = assay: as above; settings: application rate 320 g/ha
Text: as §3

Stellaria media [19] = assay: as above
Text: as §3

Veronica persica [20] = assay: as above
Text: as §3

Avena fatua = assay: as above; settings: application rate 320 g/ha
Text: as §3

Pharbitis purpurea [21] = assay: as above
Text: as §3

Echinochloa crus-galli [22] = assay: as above; settings: application rate 320 g/ha
Text: as §3

Viola tricolor [23] = assay: as above
Text: as §3

Lolium rigidum [24] = assay: as above
Text: as §3

Zea mays = assay: Crop compatibility post-emergence, greenhouse pot test
Outline: as §2

Oryza sativa = assay: as above
Outline: as §2

Cyperus esculentus = assay: Herbicidal action pre-emergence, greenhouse pot test; settings: application rate 320 g/ha
Text: as §3

Row | Compound | Alopecurus myosuroides (Efficacy in %) (Alopecurus myosuroides [2]) | Setaria viridis (Efficacy in %) (Setaria viridis [3]; application rate 80 g/ha) | Amaranthus retroflexus (Efficacy in %) (Amaranthus retroflexus [4]) | Polygonum convolvulus (Efficacy in %) (Polygonum convolvulus [5]; application rate 80 g/ha) | Abutilon theophrasti (Efficacy in %) (Abutilon theophrasti [6]) | Stellaria media (Efficacy in %) (Stellaria media [7]) | Veronica persica (Efficacy in %) (Veronica persica [8]) | Matricaria inodora (Efficacy in %) (Matricaria inodora [9]; application rate 80 g/ha) | Pharbitis purpurea (Efficacy in %) (Pharbitis purpurea [10]; application rate 80 g/ha) | Echinochloa crus-galli (Efficacy in %) (Echinochloa crus-galli [11]) | Triticum aestivum (Efficacy in %) (Triticum aestivum) | Alopecurus myosuroides (Efficacy in %) (Alopecurus myosuroides [14]) | Amaranthus retroflexus (Efficacy in %) (Amaranthus retroflexus [16]) | Hordeum murinum (Efficacy in %) (Hordeum murinum) | Avena fatua (Efficacy in %) (Avena fatua) | Echinochloa crus-galli (Efficacy in %) (Echinochloa crus-galli [22]) | Setaria viridis (Efficacy in %) (Setaria viridis [15]; application rate 320 g/ha) | Polygonum convolvulus (Efficacy in %) (Polygonum convolvulus [17]; application rate 320 g/ha) | Abutilon theophrasti (Efficacy in %) (Abutilon theophrasti [18]; application rate 320 g/ha) | Veronica persica (Efficacy in %) (Veronica persica [20]; application rate 320 g/ha) | other results
1 | CCOC(=O)CC(C)OC(=O)C(C)Sc1cc(-n2c(=O)cc(C(F)(F)F)n(C)c2=O)c(F)cc1Cl (stereo not shown) [I.1-23] | 90% | 100% | 100% | 100% | 100% | 100% | 100% | 100% | 100% | 100% | 20% | 100% | 100% | 100% | 100% | 100% |  |  |  |  | Matricaria inodora (Efficacy in %) (Matricaria inodora [1]; application rate 800 g/ha): 100%; Viola tricolor (Efficacy in %) (Viola tricolor [12]): 100%; Lolium rigidum (Efficacy in %) (Lolium rigidum [13]): 90%; Setaria viridis (Efficacy in %) (Setaria viridis [15]; application rate 80 g/ha): 100%; Polygonum convolvulus (Efficacy in %) (Polygonum convolvulus [17]; application rate 80 g/ha): 100%; Abutilon theophrasti (Efficacy in %) (Abutilon theophrasti [18]; application rate 80 g/ha): 100%; Stellaria media (Efficacy in %) (Stellaria media [19]; application rate 80 g/ha): 100%; Veronica persica (Efficacy in %) (Veronica persica [20]; application rate 80 g/ha): 100%; Pharbitis purpurea (Efficacy in %) (Pharbitis purpurea [21]; application rate 80 g/ha): 100%; Viola tricolor (Efficacy in %) (Viola tricolor [23]; application rate 80 g/ha): 100%; Lolium rigidum (Efficacy in %) (Lolium rigidum [24]; application rate 80 g/ha): 100%
2 | COC(=O)C(C)(C)OC(=O)C(C)Sc1cc(-n2c(=O)cc(C(F)(F)F)n(C)c2=O)c(F)cc1Cl (stereo not shown) [I.1-132] | 80% | 100% | 100% | 100% | 100% | 100% | 100% | 90% | 100% | 100% | 10% | 100% | 100% | 80% | 90% | 100% | 100% | 100% | 100% | 100% | Matricaria inodora (Efficacy in %) (Matricaria inodora [1]; application rate 320 g/ha): 100%; Zea mays (Efficacy in %) (Zea mays; application rate 20 g/ha): 20%; Oryza sativa (Efficacy in %) (Oryza sativa; application rate 80 g/ha): 20%; Stellaria media (Efficacy in %) (Stellaria media [19]; application rate 320 g/ha): 100%; Pharbitis purpurea (Efficacy in %) (Pharbitis purpurea [21]; application rate 320 g/ha): 100%; Viola tricolor (Efficacy in %) (Viola tricolor [23]; application rate 320 g/ha): 100%; Lolium rigidum (Efficacy in %) (Lolium rigidum [24]; application rate 320 g/ha): 100%
3 | CC(Sc1cc(-n2c(=O)cc(C(F)(F)F)n(C)c2=O)c(F)cc1Cl)C(=O)OC1CCOC1=O (stereo not shown) [I.1-141] | 90% |  | 100% | 100% | 100% | 100% | 100% | 100% | 100% | 100% | 20% | 80% | 100% | 100% | 80% | 100% | 100% | 100% | 100% | 100% | Matricaria inodora (Efficacy in %) (Matricaria inodora [1]; application rate 320 g/ha): 100%; Setaria viridis (Efficacy in %) (Setaria viridis [3]; application rate 20 g/ha): 100%; Zea mays (Efficacy in %) (Zea mays; application rate 5 g/ha): 10%; Oryza sativa (Efficacy in %) (Oryza sativa; application rate 20 g/ha): 0%; Stellaria media (Efficacy in %) (Stellaria media [19]; application rate 320 g/ha): 100%; Pharbitis purpurea (Efficacy in %) (Pharbitis purpurea [21]; application rate 320 g/ha): 100%; Viola tricolor (Efficacy in %) (Viola tricolor [23]; application rate 320 g/ha): 100%; Lolium rigidum (Efficacy in %) (Lolium rigidum [24]; application rate 320 g/ha): 100%
4 | CCOC(=O)CC(C)OC(=O)CSc1cc(-n2c(=O)cc(C(F)(F)F)n(C)c2=O)c(F)cc1Cl (stereo not shown) [I.8-23] |  | 100% | 100% |  | 100% | 100% | 100% |  |  | 100% | 20% |  | 100% | 80% |  | 100% | 100% | 100% | 100% | 100% | Matricaria inodora (Efficacy in %) (Matricaria inodora [1]; application rate 80 g/ha): 100%; Polygonum convolvulus (Efficacy in %) (Polygonum convolvulus [5]; application rate 20 g/ha): 100%; Matricaria inodora (Efficacy in %) (Matricaria inodora [9]; application rate 20 g/ha): 100%; Pharbitis purpurea (Efficacy in %) (Pharbitis purpurea [10]; application rate 20 g/ha): 100%; Viola tricolor (Efficacy in %) (Viola tricolor [12]): 100%; Oryza sativa (Efficacy in %) (Oryza sativa; application rate 5 g/ha): 20%; Cyperus esculentus (Efficacy in %) (Cyperus esculentus): 90%; Stellaria media (Efficacy in %) (Stellaria media [19]; application rate 80 g/ha): 100%; Pharbitis purpurea (Efficacy in %) (Pharbitis purpurea [21]; application rate 320 g/ha): 100%; Viola tricolor (Efficacy in %) (Viola tricolor [23]; application rate 320 g/ha): 100%; Lolium rigidum (Efficacy in %) (Lolium rigidum [24]; application rate 320 g/ha): 90%
